Reference: patent publication US20240208984A1, “BIVALENT LIGANDS TO UNDERSTAND DIMERIZATION OF THE MU OPIOID RECEPTOR AND THE CHEMOKINE RECEPTOR CCR5 IN NEUROLOGICAL DISORDERS” (priority 2021, published 2024)

Experiments:
HIV-1BaL = assay: Anti-HIV-1BaL activity (reverse transcriptase activity) in GHOST CCR5 cells; conditions: read-out: Inhibition of HIV-1BaL EC50, RT activity, triplicate
Description: This assay was run in GHOST-CCR5 cells using the CCR5-tropic viral strain HIV-1BaL.
100 μL of GHOST CCR5 cells at a density of 1×10^4 cells/well in 10% complete DMEM (10% FBS with 1% L-glutamine and 1% Penicillin/Streptomycin) media were plated in a 96-well flat bottom plate and incubated for 24 h at 37° C./5% CO2. Following the incubation, 100 μL of each compound at 6 concentrations were added in triplicate to both efficacy and toxicity plates followed by 100 μL of HIV-1BaL at a pre-determined titer to the plates being evaluated for efficacy and 50 μL of complete DMEM to the plates being evaluated for cytotoxicity. The cultures were incubated for 6 days at 37° C./5% CO2. Following the incubation, 50 μL of cell culture supernatant was removed from the wells of the efficacy plates for subsequent evaluation of virus content by reverse transcriptase activity assay. The toxicity plates being evaluated for cytotoxicity were stained with XTT.
RT activity (EC50 values) was measured using standard radioactivity incorporation polymerization assay. 1 μL of titrated thymidine triphosphate (TTP) at 1 Ci/mL was used per enzyme reaction. Poly rA and oligo dT were prepared at concentrations of 0.5 mg/mL and 1.7 Units/mL, respectively, from a stock solution which was kept at −20° C. The RT reaction buffer was prepared fresh and consists of 125 μL of 1M EGTA, 125 μL of dH2O, 125 μL of 20% Triton X-100, 50 μL of 1M Tris (pH 7.4), 50 μL of 1M DTT, and 40 μL of 1 M MgCl2. For each reaction, 1 μL of TTP, 4 μL of dH2O, 2.5 μL of rAdT and 2.5 μL of reaction buffer were mixed. 10 μL of this reaction mixture was placed in a round bottom microtiter plate with 15 μL of virus containing supernatant. The plate was incubated at 37° C. in a humidified incubator for 60-90 min. […] The dried filtermat was placed in a plastic sleeve and 4 mL of Opti-Fluor O (Perkin Elmer, catalog #1205-440) scintillation fluid was added to each sleeve. […] TC50 values for the tested compounds were derived by measuring the reduction of the tetrazolium dye XTT (2,3-bis(2-methoxy-4-nitro-5-sulfophenyl)-5-[(phenylamino)carbonyl]-2H-tetrazolium hydroxide). XTT in metabolically active cells is metabolized by the mitochondrial enzyme NADPH oxidase to a soluble formazan product. XTT solution was prepared as a stock of 1 mg/mL in RPMI-1640 without additives. Phenazine methosulfate (PMS) solution was prepared at 0.15 mg/mL in DPBS and stored in the dark at −20° C. XTT/PMS stock was prepared immediately before use by adding 40 μL of PMS per mL of XTT solution. […] The plates were sealed and inverted several times to mix the soluble formazan product and the plate was read at 450 nm (650 nm reference wavelength) with a Molecular Devices SPECTRAMAX® Plus 384 96 well format spectrophotometer.

[1] = tested on: HIV-1BaL Env-pseudotyped Luc-expressing virus; assay: HIV-1-Luc infection assay in PBMCs; type: cell-based; conditions: non-stimulated PBMCs; 1000 nM
Description: Peripheral blood mononuclear cells (PBMCs) include large numbers of CCR5-expressing leukocytes and are susceptible to infection by R5-tropic HIV-1 strains.
Isolated human PBMCs were obtained commercially from the New York Blood Bank and exempt from Human Subjects criteria (NIH Exemption 4: website located at nih.gov/sites/default/files/exemption_infographic_v7_508c-3-21-19.pdf). The adult PBMCs are publicly available and no information or identifiers are provided so subjects cannot be identified. […] After 3 days in culture, supernatants were harvested, floating cells removed by centrifugation, HIV-1 p24 Ag measured by commercial ELISA (Zeptometrix), and viral aliquots stored at −80° C. […]
PBMCs were isolated from buffy coats of healthy blood donors by centrifugation in Ficoll gradient (MP Biomedicals). Viable cells, determined by Trypan blue exclusion, were stimulated, or not, for 2 days with 5 μg/mL PHA (Sigma). […]
After 2 days of infection, 100 μL of 2× Luciferase Substrate containing lysing buffer (BRIGHT-GLO™ Luciferase Assay System, Promega) were added per well, plate was agitated for 2 mins (700 rpm) and Luminescence was evaluated using a PHERASTAR® FS plate reader (BMG Labtech).

`CC(C)c1nnc(CCNC(=O)COCC(=O)NCCCCCCCNC(=O)COCC(=O)NC2CC[C@@]3(O)[C@H]4Cc5ccc(O)c6c5[C@@]3(CCN4CC3CC3)[C@H]2O6)n1C1CC2CCC(C1)N2CC[C@H](NC(=O)C1CCC(F)(F)CC1)c1ccccc1` (some centres unmarked) [VZMC013] was tested, and the EC50 (HIV-1BaL) was 0.093 µM and the “Inhibition of HIV-1-Luc infectivity” value [1] was “nearly complete blockade”.
